The values below come from US6287813A, “Antibiotic-based gene regulation system” (Cistronics Cell Technology GmbH, priority 1999, dated 2001).

The target in test [1] is T1, Pip/PPTR (Streptomyces coelicolor, UniProt Q9ADN3).
T1 construct: gel retardation with ptr promoter DNA (PPTR) of S. pristinaespiralis
T1 sequence (Q9ADN3 1-252): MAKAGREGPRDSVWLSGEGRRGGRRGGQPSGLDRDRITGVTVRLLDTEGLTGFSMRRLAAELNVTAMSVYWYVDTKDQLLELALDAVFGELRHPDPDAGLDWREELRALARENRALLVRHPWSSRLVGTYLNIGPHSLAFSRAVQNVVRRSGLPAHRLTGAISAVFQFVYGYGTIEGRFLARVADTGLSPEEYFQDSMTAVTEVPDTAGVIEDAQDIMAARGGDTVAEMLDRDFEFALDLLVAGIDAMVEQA
The test can be described thus: Gel retardation assay of Pip/PPTR interaction. The format is binding. The conditions noted are these: Pip 0.2 pmol titrated with 50 pmol to 0.01 pmol antibiotic. The text has this: FIG. 1: Gel retardation assay showing Pip/PPTR interaction. PPTR of S. pristinaespiralis contains 3 dyad symmetrical binding sites (lane A; PPTR in the absence of Pip) all of which are saturated at relatively large amounts of purified Pip (0.4 pmol; […]) resulting in a single shifted band. Smaller amounts of Pip (0.02 pmol) presented an intermediate situation in which all possible permutations of site occupancy are represented in three distinct retarded bands (lane C). Pip (0.2 pmol lanes D-M) was titrated with a range of PI from 50 pmol to 0.01 pmol (lanes D-H; D: 50 pmol; E: 10 pmol; F: 1 pmol; G: 0.1 pmol; H: 0.01 pmol). […]
Chinese hamster ovary cells (CHO-K1, ATCC: CCL 61), Baby hamster kidney cells (BHK-21, ATCC: CRL-8544), and HeLa cells (ATCC: CRL-7923) as well as stable cell lines CHO-PIT1, CHO-PIT2, CHO-TWIN195, CHO-TWIN1108 and CHO-PIT1-SEAP were cultured as described before (Fussenegger et al., 1998, Nat. Biotechnol. 16,468-472) in the presence of appropriate antibiotics: G418 400 μg/ml; zeocin 100 μg/ml. […] Transient transfected cells were routinely analyzed after 48 h for GFP or SEAP expression using fluorescence microscopy and p-nitrophenolphosphate-based light absorbance timecourse, respectively, as described before (Fussenegger et al., 1998, Nat. Biotechnol. 16, 468-472; Berger et al., 1988, Gene 66, 1-10 b). […]

In test [2] the target is T2, PIT2 (Pip-p65)/PPIR (Streptomyces coelicolor, UniProt Q9ADN3).
T2 construct: pMF206 with pMF172 (PPIR-SEAP) in CHO-K1
T2 sequence (Q9ADN3 1-252): T1 sequence (Q9ADN3 1-252)
The test can be described thus: SEAP reporter assay, CHO-K1 cotransfected with pMF206 (PIT2; Pip-p65) and pMF172 (PPIR-SEAP). The conditions noted are these: +PI (2 μg/ml), 48 hr post transfection. The format is cell-based. The text has this:
PIT2, the fusion protein of Pip and the p65 transactivation domain of the human NF-κB transcription activator was cloned in a three step procedure: (i) The p65 domain of the human NF-κB transcription activator was amplified from pSG424-p65 (kindly provided by H. Hauser, GBF, Braunschweig, Germany) with oligos OMF97:
Chinese hamster ovary cells (CHO-K1, ATCC: CCL 61), Baby hamster kidney cells (BHK-21, ATCC: CRL-8544), and HeLa cells (ATCC: CRL-7923) as well as stable cell lines CHO-PIT1, CHO-PIT2, CHO-TWIN195, CHO-TWIN1108 and CHO-PIT1-SEAP were cultured as described before (Fussenegger et al., 1998, Nat. Biotechnol. 16,468-472) in the presence of appropriate antibiotics: G418 400 μg/ml; zeocin 100 μg/ml. Optimized CaPO4 protocols were used for high efficiency transient transfection of all cell lines (id). Transient transfected cells were routinely analyzed after 48 h for GFP or SEAP expression using fluorescence microscopy and p-nitrophenolphosphate-based light absorbance timecourse, respectively, as described before (Fussenegger et al., 1998, Nat. Biotechnol. 16, 468-472; Berger et al., 1988, Gene 66, 1-10 b). […]
In addition, pMF206 (PIT2; Pip-p65) was cotransfected with pMF172 (PPIR -SEAP) and the SEAP readout in the absence and presence of PI (2 μg/ml) was directly compared to CHO-K1 cells cotransfected with pMF156 (PIT; Pip-VP16) and pMF172 (PPIR -SEAP). […]
Background: Reporter assays use an easily measured gene product as a stand-in for the process of interest.

Test [3] deals with PIT-dependent promoters PPIR, PPIR2, PPIR3. The experiment in a line: SEAP expression from modified PI-responsive promoters (PPIR, PPIR2, PPIR3). The format is cell-based, Streptomyces coelicolor. The text has this: The naturally occurring Pptr sequence contains only three distinct Pip binding sites which could accommodate PIT. In order to enhance maximal expression from streptogramin-responsive system, we constructed PI-responsive promoters with two (PPIR2) and three (PPIR3) ptr binding motifs with a total of 6 and 9 Pip binding sites, respectively.
Both DNA fragments were digested with AatII and Sse8387I (corresponding restriction sites are shown in bold) and ligated to the corresponding sites of pMF172 (PPIR -SEAP; AatII/Sse8387I) thereby replacing the single Pip binding sequence (Pptr of S. pristinaespiralis; Salah-Bey et al., 1995; Salah-Bey and Thompson, 1995) to result in plasmids pMF198 (PPIR2 -SEAP) and pMF199 (PPIR3 -SEAP). […]

PIT-dependent promoters PPIR, PPIR2, PPIR3, sequence (as listed by the source): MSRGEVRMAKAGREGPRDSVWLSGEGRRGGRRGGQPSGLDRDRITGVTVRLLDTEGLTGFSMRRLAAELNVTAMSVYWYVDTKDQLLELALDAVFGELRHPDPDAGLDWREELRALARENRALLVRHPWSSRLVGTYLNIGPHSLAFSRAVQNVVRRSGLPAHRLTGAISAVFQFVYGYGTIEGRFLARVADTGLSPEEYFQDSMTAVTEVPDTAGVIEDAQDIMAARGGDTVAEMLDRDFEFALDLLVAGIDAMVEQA

Take pristinamycin I [PI]: the “Release of Pip from PPTR” value in test [1] is “completely released”. For the same substance, the “SEAP readout (slope of the p-nitrophenolphosphate-based light absorbance time courses)” value in test [2] is on record as 0.31 ± 0.003. The “SEAP expression in the presence of PI” value in test [3] (PPIR2 -SEAP (pMF198)) stood at 0.073 ± 0.004; in test [3] (PPIR2 -SEAP (pMF199) as printed), 0.09 ± 0.008; in test [3] (PPIR -SEAP (pMF172)), 0.04 ± 0.019.
